Read-outs that look alike come from different tables or passages of the source. Square brackets hold non-standard residues; d marks the D form. Peptide text beside a SMILES is read from it. * marks the point of attachment. X1 = NCCCC[C@H](NC(=O)[C@H](CS)NC(=O)[C@H](CCCCN)NC(=O)[C@@H](N)CNC(=O)C*)C(N)=O; NMeF = CN[C@@H](Cc1ccccc1)C(=O)O; hCys = N[C@@H](CCS)C(=O)O
Assays:
[1] = target: megalin (Homo sapiens, UniProt P98164); settings: cited from earlier work
[2] = Biodistribution of radiopharmaceuticals in RAP-deficient mice and control strain C57BL/6J, organs, urine and faeces counted for radioactivity; assay type: in vivo; settings: mouse, total radioactivity, single intravenous injection 1-2 μCi/animal, 24 hours post injection, n = 3; for tissue uptake at 24 h: kidneys; for dose excreted at 24 h: urine, read-out: Urine (% ID)
Experimental: In order to investigate, whether megalin and cubilin play a role in the renal uptake of radiopharmaceuticals into cells of the proximal tubule, in-vivo experiments with RAP-deficient mice (Jax®Mice, strain B6.129S7-Lrpap1^tmlHer) were carried out.
RAP is mainly located in the endoplasmatic reticulum where it is responsible for the proper folding and escort of megalin to the plasma membrane (Willnow, 1995). RAP also binds to other members of the LDL-receptor family, such as the receptor LRP (LDL-receptor related protein) which is not expressed in the kidneys but mostly in the liver and the brain. In RAP-deficient mice the megalin expression in the kidneys is reduced by about 80% (Bim, 2000) and also the cubilin expression is reduced by some extend. These mice are therefore a representative model to study the megalin dependence of the uptake of radiopharmaceuticals. There exist also megalin knock-out mice which have the disadvantage that only 2% of the bred animals survive to adulthood due to several malformations especially of the forebrain (Leheste, 1999).
RAP-deficient mice (stock #002987) and mice of the control strain C57BL/6J (Jax®Mice, stock #000664) were treated with a single intravenous injection (1-2 μCi/animal) of the following radiopharmaceuticals:
After 24 hours post injection the animals were killed and the organs as well as the collected urine and faeces counted for radioactivity. […]

[3] = B6.129S7-Lrpap1^tmlHer (RAP-deficient), RAP−/− (RAP-deficient) mice

megalin, sequence (P98164 26-4655, species assumed): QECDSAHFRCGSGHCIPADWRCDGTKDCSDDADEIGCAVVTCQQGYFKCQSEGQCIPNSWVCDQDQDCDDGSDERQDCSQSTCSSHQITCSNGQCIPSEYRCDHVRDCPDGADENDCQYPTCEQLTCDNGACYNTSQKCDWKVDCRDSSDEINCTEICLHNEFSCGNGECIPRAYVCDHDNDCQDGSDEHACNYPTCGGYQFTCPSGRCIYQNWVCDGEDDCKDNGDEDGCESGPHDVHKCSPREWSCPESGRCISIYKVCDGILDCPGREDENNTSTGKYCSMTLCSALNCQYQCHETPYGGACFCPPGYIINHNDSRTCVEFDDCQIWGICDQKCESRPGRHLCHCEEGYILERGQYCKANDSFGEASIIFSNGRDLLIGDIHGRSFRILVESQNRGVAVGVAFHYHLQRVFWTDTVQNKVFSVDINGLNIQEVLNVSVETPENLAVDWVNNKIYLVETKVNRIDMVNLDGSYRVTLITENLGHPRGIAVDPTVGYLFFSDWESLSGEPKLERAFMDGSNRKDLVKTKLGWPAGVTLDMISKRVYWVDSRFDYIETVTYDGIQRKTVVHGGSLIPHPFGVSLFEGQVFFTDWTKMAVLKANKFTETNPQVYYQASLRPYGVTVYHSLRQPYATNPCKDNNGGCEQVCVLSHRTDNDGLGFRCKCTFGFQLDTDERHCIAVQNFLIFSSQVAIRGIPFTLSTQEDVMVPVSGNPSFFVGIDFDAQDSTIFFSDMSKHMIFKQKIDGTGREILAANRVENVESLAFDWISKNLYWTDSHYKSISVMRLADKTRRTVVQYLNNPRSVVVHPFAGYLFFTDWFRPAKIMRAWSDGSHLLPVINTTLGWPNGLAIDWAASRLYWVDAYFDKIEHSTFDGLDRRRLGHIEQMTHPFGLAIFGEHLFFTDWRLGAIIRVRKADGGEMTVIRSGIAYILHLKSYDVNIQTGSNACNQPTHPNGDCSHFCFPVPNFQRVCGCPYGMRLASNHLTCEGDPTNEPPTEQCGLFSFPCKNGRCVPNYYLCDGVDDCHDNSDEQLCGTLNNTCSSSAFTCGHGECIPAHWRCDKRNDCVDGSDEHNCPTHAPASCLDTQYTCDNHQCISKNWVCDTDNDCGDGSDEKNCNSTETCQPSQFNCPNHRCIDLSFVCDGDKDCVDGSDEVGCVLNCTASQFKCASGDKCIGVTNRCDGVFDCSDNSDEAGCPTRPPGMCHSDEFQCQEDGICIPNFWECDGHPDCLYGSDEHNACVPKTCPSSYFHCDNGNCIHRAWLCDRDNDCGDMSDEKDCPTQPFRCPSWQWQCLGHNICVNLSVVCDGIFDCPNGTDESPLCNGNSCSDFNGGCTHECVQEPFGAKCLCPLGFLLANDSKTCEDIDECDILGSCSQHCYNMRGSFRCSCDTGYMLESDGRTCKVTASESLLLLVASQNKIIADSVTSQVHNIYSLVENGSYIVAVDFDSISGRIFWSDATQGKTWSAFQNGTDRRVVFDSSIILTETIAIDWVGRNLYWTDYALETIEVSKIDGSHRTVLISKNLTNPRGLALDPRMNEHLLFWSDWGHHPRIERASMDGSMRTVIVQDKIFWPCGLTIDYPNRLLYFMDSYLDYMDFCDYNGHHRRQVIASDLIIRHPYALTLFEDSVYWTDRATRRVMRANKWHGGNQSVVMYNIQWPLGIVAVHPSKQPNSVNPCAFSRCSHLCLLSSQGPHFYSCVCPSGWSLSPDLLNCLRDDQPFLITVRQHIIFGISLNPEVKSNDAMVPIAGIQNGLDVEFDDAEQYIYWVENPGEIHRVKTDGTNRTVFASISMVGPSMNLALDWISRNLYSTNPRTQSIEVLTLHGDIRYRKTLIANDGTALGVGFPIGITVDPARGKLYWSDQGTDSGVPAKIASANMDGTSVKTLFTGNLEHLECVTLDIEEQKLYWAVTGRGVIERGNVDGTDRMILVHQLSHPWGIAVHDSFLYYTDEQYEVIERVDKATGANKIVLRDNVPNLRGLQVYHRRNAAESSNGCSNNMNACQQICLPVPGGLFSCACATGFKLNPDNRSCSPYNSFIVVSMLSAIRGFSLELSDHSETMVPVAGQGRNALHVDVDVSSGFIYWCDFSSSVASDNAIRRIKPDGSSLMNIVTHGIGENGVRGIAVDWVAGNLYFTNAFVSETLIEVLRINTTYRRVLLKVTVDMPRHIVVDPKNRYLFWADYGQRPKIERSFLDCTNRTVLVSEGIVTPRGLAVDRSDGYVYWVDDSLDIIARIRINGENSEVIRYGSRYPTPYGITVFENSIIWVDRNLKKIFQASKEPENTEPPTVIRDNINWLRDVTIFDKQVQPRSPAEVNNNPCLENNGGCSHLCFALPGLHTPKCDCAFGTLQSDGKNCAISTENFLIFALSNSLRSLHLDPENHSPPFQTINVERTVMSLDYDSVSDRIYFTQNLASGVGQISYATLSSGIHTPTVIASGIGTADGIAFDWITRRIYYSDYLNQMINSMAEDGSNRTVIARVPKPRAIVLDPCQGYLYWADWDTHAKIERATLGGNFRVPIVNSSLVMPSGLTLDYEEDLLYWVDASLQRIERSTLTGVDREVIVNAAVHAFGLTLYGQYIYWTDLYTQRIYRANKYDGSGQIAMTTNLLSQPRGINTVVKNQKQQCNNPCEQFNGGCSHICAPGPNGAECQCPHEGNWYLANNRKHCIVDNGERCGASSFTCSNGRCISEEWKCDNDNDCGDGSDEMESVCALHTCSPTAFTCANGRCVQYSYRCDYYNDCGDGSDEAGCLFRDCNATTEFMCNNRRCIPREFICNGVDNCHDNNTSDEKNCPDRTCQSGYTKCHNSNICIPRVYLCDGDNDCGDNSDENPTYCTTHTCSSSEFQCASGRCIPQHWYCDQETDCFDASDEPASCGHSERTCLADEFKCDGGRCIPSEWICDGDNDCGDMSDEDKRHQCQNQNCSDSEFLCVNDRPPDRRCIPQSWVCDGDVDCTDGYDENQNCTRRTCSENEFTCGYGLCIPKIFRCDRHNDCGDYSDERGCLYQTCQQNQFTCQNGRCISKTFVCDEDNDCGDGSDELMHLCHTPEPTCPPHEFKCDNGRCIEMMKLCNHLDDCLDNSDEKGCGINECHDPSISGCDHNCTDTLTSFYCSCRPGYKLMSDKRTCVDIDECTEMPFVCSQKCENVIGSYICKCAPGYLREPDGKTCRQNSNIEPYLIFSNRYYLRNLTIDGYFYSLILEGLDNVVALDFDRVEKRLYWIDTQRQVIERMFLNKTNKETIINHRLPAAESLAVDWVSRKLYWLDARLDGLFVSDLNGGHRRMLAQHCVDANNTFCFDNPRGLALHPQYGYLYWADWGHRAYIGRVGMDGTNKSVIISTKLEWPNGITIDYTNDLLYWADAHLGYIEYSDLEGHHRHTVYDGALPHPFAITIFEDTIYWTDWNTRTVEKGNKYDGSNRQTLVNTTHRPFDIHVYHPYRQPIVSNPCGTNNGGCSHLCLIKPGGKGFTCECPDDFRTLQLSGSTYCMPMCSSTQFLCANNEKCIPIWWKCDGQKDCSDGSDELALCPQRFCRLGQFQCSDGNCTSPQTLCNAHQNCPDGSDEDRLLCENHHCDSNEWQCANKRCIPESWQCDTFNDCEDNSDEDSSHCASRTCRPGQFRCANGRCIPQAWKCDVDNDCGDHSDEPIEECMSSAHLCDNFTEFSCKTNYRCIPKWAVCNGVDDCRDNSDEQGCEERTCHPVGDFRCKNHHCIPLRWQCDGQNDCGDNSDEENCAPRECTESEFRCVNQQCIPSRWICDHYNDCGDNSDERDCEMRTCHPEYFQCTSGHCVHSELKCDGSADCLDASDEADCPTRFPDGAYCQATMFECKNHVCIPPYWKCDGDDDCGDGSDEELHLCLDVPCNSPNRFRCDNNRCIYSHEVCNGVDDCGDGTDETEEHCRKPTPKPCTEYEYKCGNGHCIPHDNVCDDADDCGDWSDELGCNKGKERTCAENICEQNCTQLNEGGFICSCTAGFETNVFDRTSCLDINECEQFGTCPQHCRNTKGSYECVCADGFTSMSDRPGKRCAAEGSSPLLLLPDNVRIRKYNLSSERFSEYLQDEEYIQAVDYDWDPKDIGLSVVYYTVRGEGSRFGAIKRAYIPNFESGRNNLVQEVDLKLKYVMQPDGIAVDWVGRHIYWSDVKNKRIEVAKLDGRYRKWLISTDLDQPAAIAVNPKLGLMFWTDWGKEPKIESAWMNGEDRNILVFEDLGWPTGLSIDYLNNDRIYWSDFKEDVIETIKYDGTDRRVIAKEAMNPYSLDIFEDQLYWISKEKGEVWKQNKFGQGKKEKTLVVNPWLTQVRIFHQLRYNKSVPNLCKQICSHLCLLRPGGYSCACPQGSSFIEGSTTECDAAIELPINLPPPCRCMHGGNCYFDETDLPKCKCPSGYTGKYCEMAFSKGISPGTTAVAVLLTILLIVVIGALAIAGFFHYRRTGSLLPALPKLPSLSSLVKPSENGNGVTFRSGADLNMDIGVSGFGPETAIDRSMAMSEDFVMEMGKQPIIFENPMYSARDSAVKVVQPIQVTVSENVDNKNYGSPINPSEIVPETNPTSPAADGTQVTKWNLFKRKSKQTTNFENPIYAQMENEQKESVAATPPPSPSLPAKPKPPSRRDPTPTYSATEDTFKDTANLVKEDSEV

tissue uptake at 24 h [2, 3] [%ID/g] | dose excreted at 24 h [2, 3] [%] | tissue uptake at 24 h ([2]; Control mice (C57BL/6J)) [%ID/g] | dose excreted at 24 h ([2]; Control mice (C57BL/6J)) [%] | Compound | Affinity of binding to megalin [1]
 |  |  |  | RAP: 39 kDa chaperone-like protein that binds tightly to megalin | high affinity in the nanomolar range
99.3 | 40.4 | 261 | 23.6 | CC(C)[C@@H]1NC(=O)[C@H](CCCCN)NC(=O)[C@@H](Cc2c[nH]c3ccccc23)NC(=O)[C@H](Cc2ccc(O)cc2)NC(=O)[C@H](Cc2ccccc2)N(C)C(=O)[C@H](CCSCC(=O)NC[C@H](N)C(=O)N[C@@H](CCCCN)C(=O)N[C@@H](CS)C(=O)N[C@@H](CCCCN)C(N)=O)NC1=O [Tc-99m-NeoTect ®, metal not drawn] (cyclo([hCys](X1)[NMeF]Y[dW]KV)) | 

From patent US20040204357A1, “Modulator of the megalin-mediated uptake of radiotherapeutics and/or radiodiagnostics into kidney cells and their use in therapy and diagnostics” (priority 2003, published 2004)
